Measurements: patent EP1973398B1, “USE OF INOSITOL-TRIPYROPHOSPHATE IN TREATING TUMORS MEDIATED BY ANGIOGENESIS” (NormOxys, Inc., priority 2006, dated 2007)

Columns and labels:
hemoglobin [1] = target: T1, hemoglobin (Homo sapiens, UniProt P68871); conditions: relative to DPG; cited from earlier work
hemoglobin [2] = target: T1, hemoglobin; conditions: pH 7.4, 37 degrees C.; cited from earlier work
VEGF mRNA = VEGF mRNA by RT-PCR in Lewis Lung carcinoma tumors of mice drinking ITPP; format: in vivo, C57BL/6 mice; conditions: LLC tumors, mice having received ITPP 20g/L orally, day 9, versus controls; quantification of gel assays
Description: ITPP, when administered orally, intravenously, or intraperitoneally, inhibits angiogenesis in growing tumors by enhancing PO2 in the forming tumors. […] All animals received then 1x10^6 Lewis Lung carcinoma (LLC) cells, injected in the dorsal cavity. At different time points, the VEGF mRNA were assayed by RT-PCR in the tumors growing in both groups of mice.
There was a difference in the level of mRNA of the VEGF gene in both groups. […] The RT-PCR agarose gel assay of VEGF mRNAs from tumor tissue taken from 2 mice each on day 15 after inoculation of LLC cells (track 1: controls, track 2: ITPP treated animals) and day 30 after inoculation (track 3: control animals, track 4: ITPP treated animals).
Quantification of the gel assays indicated a reduction by a factor of 10,000 of the amount of VEGF mRNAs detected in the tumors of animals having received ITPP, at day 9 and then, while differences remain between treated and untreated animals, they tend to decrease.

[3] = Right shift of P50 in piglets, ITPP injected intravenously; format: in vivo
Description: ITPP was also injected intravenously (IV) in piglets.
(§1) Based upon this observation, a CaCl2 (equimolar to ITPP) solution was injected with the ITPP solution, so that the dissociated phosphate groups of ITPP were saturated. None of the side effects observed previously occurred. […] The level of the other ions sodium and potassium was unchanged after IV injection of ITPP in piglets.

murine hemoglobin = murine hemoglobin (Mus musculus, UniProt P01942+P02088); experiment: In vitro P50 shift, mixtures of hemoglobin and ITPP, HEMOX analyzer; format: biochemical; conditions: with murine hemoglobin
Sequence of murine hemoglobin (P01942 2-142 limits assumed): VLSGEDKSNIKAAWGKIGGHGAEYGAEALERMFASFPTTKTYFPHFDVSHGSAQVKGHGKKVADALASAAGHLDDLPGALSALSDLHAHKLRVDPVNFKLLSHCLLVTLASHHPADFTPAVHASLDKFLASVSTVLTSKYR
Sequence of murine hemoglobin (P02088 2-147 limits assumed): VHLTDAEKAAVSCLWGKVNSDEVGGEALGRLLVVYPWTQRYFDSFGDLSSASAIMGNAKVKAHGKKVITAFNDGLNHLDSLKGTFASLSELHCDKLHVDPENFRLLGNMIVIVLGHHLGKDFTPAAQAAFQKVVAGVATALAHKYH
Description: ITPP was tested for its ability to induce a decrease of the O2-affinity of hemoglobin measured as a shift of the P50 value (P50 at 50% saturation of hemoglobin). With murine hemoglobin and whole blood, P50 shifts to higher PO2 of up to 250% with hemoglobin and up to 40% with whole blood were observed.
For the in vitro experiments ITPP was dissolved in deionized water, pH was adjusted at pH 7 and, for incubation with whole blood, the osmolality of the ITPP solutions was adjusted with glucose to 270-297 mOsM. Mixtures of hemoglobin and ITPP were measured with a HEMOX analyzer (PD Marketing, London) immediately. Red blood cells were incubated with ITPP for 1 hour at 37[deg.]C. Following incubation, the cells were washed 3 times with Bis-Tris-buffer (PH=7.0) and then used for P50 measurement.

[4] = tested on: murine circulating red blood cells; experiment: Right shift of the O2-hemoglobin dissociation curve in mice, ITPP orally in drinking water; format: in vivo, C57BL/6 mice
Description: ITPP was dissolved in drinking water at a 20g/L-concentration (= 27mM, pH ~7.0.) and offered for drinking ad libitum.
Twelve (12) C57BL/6 mice were fed the ITPP-solution (20g/L-concentration = 27mM, pH -7.0) for 4 days (up to 25 ml per 24 hrs). Three (3) control mice drank pure water, and four (4) control mice a solution of myoinositol hexaphosphate (IHP) (same concentration and pH as ITPP). Blood was collected from all mice on day 0 (before treatment started), and on days 1, 2, 4, 6, 7, 8, 10, 11 and 12 (after treatment had started), in order to measure P50 values.

[5] = tested on: circulating red blood cells; experiment: Right shift of the ODC in mice, ITPP injected intraperitoneally; format: in vivo; conditions: intraperitoneal, pH 7, 200µl, 45-150 mM (0.17-0.88 g/kg body weight)
Description: (§2) When ITPP (pH 7, 200µl) was injected intraperitoneally in mice, the P50 values of circulating red blood cells were shifted up to 23%. […] The level of ions, such as sodium, potassium and calcium were normal after ip injection. Six (6) mice were each injected intraperitoneally with 45-150 mM (= 0.17-0.88 g/kg body weight) of ITPP.

[6] = Serum ion levels in piglets after intravenous ITPP; format: in vivo; conditions: for Ca^2+ conc.: piglet's circulation blood
Description: In order to check possible side effects of ITPP the level of calcium in the serum of the injected piglet was determined. A strong drop in the Ca^2+ concentration in the animal's blood immediately after infusion indicated the possibility that ITPP, with 3 dissociated phosphate groups binds Ca^2+, reducing thus its availability as free ion in the blood. One day after infusion the concentration of Ca^2+ in the piglets' blood was restored to the normal value. Table 1: Ca2+ concentration in the piglet's circulation blood
as §1

[7] = Tolerability, serum ions and blood counts in mice after oral ITPP; format: in vivo, C57BL/6 mice
Description: Three (3) control mice drank pure water, and four (4) control mice a solution of myoinositol hexaphosphate (IHP) (same concentration and pH as ITPP).
Figure 3 contains the mean values and SD for the serum concentration of sodium, potassium and calcium obtained on day 0, 7 and 11 after start drinking ITPP (4 mice), IHP (3 mice) or water (3 mice).
Blood counts were measured from all mice, on day 0, 7 and 11.

whole blood = experiment: In vitro P50 shift, whole blood / red blood cells incubated with ITPP; format: cell-based, murine
[8] = Tolerability and serum ions in mice after intraperitoneal ITPP; format: in vivo
Description: as §2

T1 sequence (P69905 2-142 partner limits assumed): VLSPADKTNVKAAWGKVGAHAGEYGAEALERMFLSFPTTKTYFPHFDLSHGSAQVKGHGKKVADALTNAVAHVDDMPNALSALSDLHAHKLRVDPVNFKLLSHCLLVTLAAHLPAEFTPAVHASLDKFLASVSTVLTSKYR
T1 sequence (P68871 2-147 limits assumed): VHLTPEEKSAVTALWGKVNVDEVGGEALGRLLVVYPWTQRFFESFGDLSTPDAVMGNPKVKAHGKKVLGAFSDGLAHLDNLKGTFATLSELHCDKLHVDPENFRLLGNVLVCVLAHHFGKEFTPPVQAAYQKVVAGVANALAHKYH

## O=P(O)(O)O[C@H]1[C@H](OP(=O)(O)O)[C@@H](OP(=O)(O)O)[C@H](OP(=O)(O)O)[C@@H](OP(=O)(O)O)[C@H]1OP(=O)(O)O [IHP, inositol hexaphosphate]
Hemoglobin [1]
  higher affinity to hemoglobin than DPG: 1000 fold
Hemoglobin [2]
  P50 of hemoglobin: ≤ 96.4 mm, Hg

## O=P1(O)OC2C3OP(=O)(O)OP(=O)(O)OC3C3OP(=O)(O)OP(=O)(O)OC3C2OP(=O)(O)O1 (stereo not drawn) [ITPP, inositol-tripyrophosphate]
VEGF mRNA
  reduction of the amount of VEGF mRNAs detected in the tumors: 10,000 factor
[3]; IV, CaCl2 solution (equimolar to ITPP) injected with the ITPP solution
  P50 shift: approximately 20 % of the basal value
[3]; intravenous
  shift of P50: right shift of P50 was observed
Murine hemoglobin
  P50 shifts to higher PO2: up to 250%
[4]; ingestion stopped on day 4
  P50 values after 12 days: back to control values
[4]; mice, oral application, 27 mM
  right shifts of P50: up to 31%
[4]; mice, oral, 27 mM
  time lag before the maximum shift is attained: approximately 48 hrs
[5]
  P50 values of circulating red blood cells shifted: up to 23%
[6]; 10 min after completion of injection (before injection 2.38)
  Ca^2+ conc.: 1.73 mmol/L
[6]; 24 hrs after injection (before injection 2.38)
  Ca^2+ conc.: 2.36 mmol/L
[6]; piglets, IV, CaCl2 (equimolar to ITPP) injected with ITPP
  level of calcium: remained constant
[6]; piglets, after IV injection of ITPP
  level of the other ions sodium and potassium: unchanged
[7]; 12 days after ingestion of ITPP, once ΔP50 becomes 0%
  basal value of the red blood cell count: restored
[7]; administered orally
  toxicity: little or no toxicity
[7]; blood from mice in different groups, day 0, 7 and 11
  number of white blood cells: no significant differences
[7]; mice having ingested ITPP, blood counts day 0, 7 and 11
  number of red blood cells: reduced
[7]; mice, ITPP-solution 20g/L (27mM) in drinking water for 4 days
  acceptance / harm to the animals: neither rejected by the mice, nor harmful to the animals
[7]; mice, after oral application, serum, day 0, 7 and 11
  level of ions, such as sodium and potassium and calcium: normal
Whole blood; in vitro
  lysis of the red blood cells: never occurred
Whole blood; with murine whole blood
  P50 shifts to higher PO2: up to 40%
[8]; intraperitoneal injection
  concentration well tolerated by mice: ≤ 150000 µM
[8]; mice, after ip injection
  level of ions, such as sodium, potassium and calcium: normal
